Laboratory results as given in PMC9785925, “Solubility and Thermal Stability of Thermotoga maritima MreB” (International Journal of Molecular Sciences, 2022).

Columns and labels:
Assay type in all cases: binding
Tm-MreB [1] = target: T1, Tm-MreB (Thermotoga maritima, UniProt Q9WZ57); experiment: competition with TNP-ATP fluorescence, Langmuir single-site fit; conditions: salt-free (4 mM TRIS-HCl, 0.1 mM CaCl2, pH 7.5), 20 µM protein, 1 µM TNP-ATP; competitive; unreliable (text and figure legend disagree)
T1 construct: recombinant in E. coli ArcticExpress (DE3), Ni-NTA purified, His-tag removed with PreScission protease; native purification
T1 sequence (Q9WZ57 1-336): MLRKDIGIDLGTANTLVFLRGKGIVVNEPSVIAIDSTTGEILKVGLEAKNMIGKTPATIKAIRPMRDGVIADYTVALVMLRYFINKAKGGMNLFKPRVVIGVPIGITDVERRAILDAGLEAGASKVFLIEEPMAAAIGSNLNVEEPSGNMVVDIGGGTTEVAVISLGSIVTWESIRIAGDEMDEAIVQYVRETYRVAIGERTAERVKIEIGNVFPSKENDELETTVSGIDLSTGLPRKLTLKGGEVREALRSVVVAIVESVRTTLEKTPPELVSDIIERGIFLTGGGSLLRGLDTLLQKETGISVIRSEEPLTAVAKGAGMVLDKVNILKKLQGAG
Description: competition with TNP-ATP fluorescence, Langmuir single-site fit on Tm-MreB | we were able to determine the affinity of ATP for Tm-MreB

Tm-MreB [2] = target: T1, Tm-MreB; experiment: thermal denaturation, tryptophan fluorescence; conditions: 2 mM ATP, salt-free (4 mM TRIS-HCl, 0.1 mM CaCl2, pH 7.5); printed as 90 °C≤
Description: thermal denaturation, tryptophan fluorescence on Tm-MreB

Tm-MreB [3] = target: T1, Tm-MreB; experiment: TNP-ATP fluorescence titration, Hill fit

Nc1ncnc2c1ncn2[C@@H]1O[C@H](COP(=O)(O)OP(=O)(O)OP(=O)(O)O)[C@@H](O)[C@H]1O [ATP]
affinity (Tm-MreB [1]): ~ 2 µM
This Work (Tryptophan Signal) (Tm-MreB [2]): > 90 °C

Nc1ncnc2c1ncn2[C@@H]1O[C@H](COP(=O)(O)OP(=O)(O)OP(=O)(O)O)[C@H]2OC3(O[C@H]21)C([N+](=O)[O-])=CC(=[N+]([O-])[O-])C=C3[N+](=O)[O-] (stereo partly drawn) [TNP-ATP]
Kd (Tm-MreB [3]): 3.69 ± 0.04 µM
